Patent publication US12037300B2, “Use of a cation source to prevent decomposition of (thio)phosphoric acid triamide urease inhibitors when a phosphorus-containing fertilizer is present” (BASF SE, priority 2016, dated 2024)

Columns and labels:
[1] = assay type: physicochemical; details: for decomposition of the urease inhibitors: after one day in the absence of TSP granules
Description: The amount of the (thio)phosphoric acid triamide in a sample after a certain time period may be detected e.g. by HPLC using method DIN EN 16651. In order to exclude a destabilizing effect caused by the urea-containing fertilizer (3a), the (thio)phosphoric acid triamide (2) may be provided in combination with a stabilizing agent, which prevents decomposition caused by the fertilizer (3a). By comparing the decomposition of the (thio)phosphoric acid triamide (2) in the presence of the fertilizer (3a) only, with the decomposition of the (thio)phosphoric acid triamide (2) in the presence of the fertilizer mixture (3) comprising the fertilizer (3a) and the P-containing fertilizer (3b), the decomposition caused by the P-containing fertilizer (3b) can be determined.
Active ingredient content on urea was analyzed by HPLC (high-pressure liquid chromatography) using method DIN EN 16651. In case of bulk blends, the urea granules were separated from the other fertilizers before dissolving in water for HPLC analysis.
Urea granules treated with 0.04 wt.-% U1 active ingredient were mixed with TSP (Triple Super Phosphate) fertilizer granules. After mixing, the samples were stored in closed containers at room temperature. After 1 day of storage, the urea granules were separated from the TSP granules and the active ingredient (a.i.) concentration on the urea was analyzed by HPLC.

[2] = system: urease, naturally present in the soil; assay: Dräger test: ammonia emission from soil treated with fertilizer granules; assay type: biochemical; details: for prevention of the degradation of U1: 0.25 g salt, 18 days storage; for prevention of the degradation of U1 / influence of DAP on the performance of the tested urease inhibitors in urea/DAP blends on addition of the salt: 10 g DAP; for influence of DAP on the performance of the tested urease inhibitors in urea/DAP blends on addition of the salt: 0.5 g salt, 3 weeks storage
Description: Alternatively, the amount of the (thio)phosphoric acid triamide (2) in a sample after a certain time period may be determined indirectly by determining the urease inhibiting efficacy that is observable. The urease-inhibiting efficacy may be determined by the Dräger test as outlined in the Examples. The Dräger test is based on the determination of the concentration of ammonia gas that is set free from a soil sample being treated with a urea-containing fertilizer once a day. In general, a certain amount of ammonia is typically produced within a certain time period in a soil sample being treated with a urea-containing fertilizer due to the degradation of the urea-containing fertilizer caused by the urease, which is present in the soil. If the urea-containing fertilizer is provided in combination with a urease inhibitor such as a (thio)phosphoric acid triamide (2), the degradation of the urea-containing fertilizer is slowed down, so that a lower amount of ammonia will be produced in the same time period. On the other hand, if the (thio)phosphoric acid triamide (2) has decomposed to a certain extent, e.g. upon storage, the production of ammonia will be reduced only to a lower extent. The ammonia concentration measured after a certain time period may thus be correlated with the amount of the (thio)phosphoric acid triamide (2) in a sample. In order to exclude a destabilizing effect caused by the urea-containing fertilizer (3a), the (thio)phosphoric acid triamide (2) may be provided in combination with a stabilizing agent, which prevents decomposition caused by the fertilizer (3a). By comparing the decomposition of the (thio)phosphoric acid triamide (2) in the presence of the fertilizer (3a) only, with the decomposition of the (thio)phosphoric acid triamide (2) in the presence of the fertilizer mixture (3) comprising the fertilizer (3a) and the P-containing fertilizer (3b), the decomposition caused by the P-containing fertilizer (3b) can be determined.
For the Dräger test, 150 g Limburgerhof (Germany) soil is added to a 500 mL wide-mouth jar (9 cm diameter). Fertilizer granules are added and distributed evenly over the soil. The amount of fertilizer added corresponds to 115 mg of urea-N. The soil and fertilizer are then wetted with a fine spray of water (1 mL). Afterwards, the jar is closed with a lid. In the middle of the lid a hole is made in which an ammonia gas test tube (Dräger, Ammoniak 20/a-D 8101301, Diffusionsröhrchen) is placed. The urease, naturally present in the soil, hydrolyses urea into carbon dioxide and ammonia. The concentration of ammonia gas is read out once a day from the scale on the Dräger diffusion tube. All tests are performed in duplicate.
For the preparation of dry blend fertilizer mixtures, 10 g of urea treated with a urease inhibitor and 10 g of the other fertilizer are added to a small jar. After closing the jar, the fertilizers are mixed by vigorously shaking the jar. The closed jar is then stored at room temperature in a dark place. At the end of the storage time, urea granules are removed and tested using the Dräger test.

Question: For `CCCNP(N)(N)=S` [NPPT, N-n-propylthiophosphoric acid triamide], which “decomposition of the urease inhibitors” value [1] is on record?
Answer: no decomposition

Question: Which “prevention of the degradation of U1” value [2] does the source give for `[Ca+2].[Cl-].[Cl-]` [calcium chloride, Calcium chloride anhydrous] here?
Answer: effective in preventing the degradation of U1

Question: And the “influence of DAP on the performance of the tested urease inhibitors in urea/DAP blends on addition of the salt” value [2]?
Answer: eliminates the influence of DAP

Question: And the “prevention of the degradation of U1 active ingredient on wetblend fertilizers” value ([2]; 16-8-22 fertilizer treated with CaCl2 solution, 1 month storage)?
Answer: able to prevent the degradation of U1 active ingredient

Question: Which “Remaining a.i. (%)” value ([1]; 24 h) does the source give for Urea here?
Answer: 100%

Question: With `CCCCNP(N)(N)=S` [NBPT, N-n-butylthiophosphoric acid triamide] as the molecule, how does the “decomposition of the urease inhibitors” value [1] read?
Answer: no decomposition

Question: For `O.O.O.O.O.O.O.O=S(=O)([O-])[O-].[Mg+2]` [Magnesium sulfate heptahydrate], which “prevention of the degradation of U1” value [2] is on record?
Answer: does prevent the degradation of U1 as effectively as anhydrous magnesium sulfate

Question: With `O=S(=O)([O-])[O-].[Mg+2]` [magnesium sulfate, Magnesium sulfate anhydrous] as the molecule, how does the “prevention of the degradation of U1 in fertilizer mixtures containing DAP” value ([2]; 0.25 g MgSO4, 10 g DAP, 1 month storage) read?
Answer: does prevent the degradation of U1

Question: And the “influence of DAP on the performance of the tested urease inhibitors in urea/DAP blends on addition of the salt” value [2]?
Answer: eliminates the influence of DAP

Question: What about the “time for which degradation of U1 in mixtures containing DAP is prevented” value ([2]; 1.25 wt.-% magnesium sulfate) of the same molecule?
Answer: up to 5 months

Question: And the “time for which degradation of U1 in mixtures containing phosphate fertilizers is prevented” value ([2]; 2.5 wt.-% magnesium sulfate)?
Answer: up to 6 months

Question: And the “inhibition of the urease activity by the salt itself” value ([2]; 10 g urea, 0.25 g MgSO4, 1 month storage)?
Answer: does not inhibit the urease activity

Question: And the “inhibition of the urease enzyme by the salt on its own” value ([2]; Example 5, 18 days storage)?
Answer: does not inhibit the urease enzyme

Question: What about the “amount effective to avoid U1 degradation” value ([2]; after 5 days storage of the NP mixture (urea/DAP)) of the same molecule?
Answer: ≤ 0.25 wt.-%

Question: With `O.O.O=S(=O)([O-])[O-].[Ca+2]` [calcium sulfate, Calcium sulfate dihydrate] as the molecule, how does the “prevention of the degradation of U1” value [2] read?
Answer: effective in preventing the degradation of U1
